Values joined by “and” are separate entries in the source; they are usually repeats but may differ in a detail not shown here. Identical values can stand only once. “Also recorded” adds a separate entry of the source.
Key:
[1] = system: human colon adenocarcinoma (HT29) cells; assay: Antiproliferative assay, cell counting (Coulter Counter), HT29; type: cell-based; details: for fold more potent than CA-4: HT29 cell line, ratio of IC50 values
Description: Human cervix carcinoma (HeLa), human colon carcinoma (HT29), human breast carcinoma (MCF-7) and human lymphoma (HL-60) cells (3–5 × 10^4 cells) and a serial (five-fold) dilution of the test compounds were added to a 96-well microtiter plate. The cells were incubated for 72–96 h (depending on the tumor cell line) at 37 °C in a humidified 5% CO2 atmosphere. At the end of the incubation period, the cells were counted in a Coulter Counter (Coulter Electronics Ltd, Harpenden Herts, UK). […] The IC50 values represent the average (±standard deviation) of at least two to four independent experiments.

[2] = system: tubulin (colchicine site); assay: Inhibition of [3H]colchicine binding to tubulin; parameters: species or system bovine; details: tubulin 1 µM, [3H]colchicine 5 µM, compound 5 µM
Description: To evaluate the effect of the compounds on tubulin assembly in vitro[40], varying concentrations of compounds were preincubated with 10 μM bovine brain tubulin in 0.8M monosodium glutamate (pH adjusted to 6.6 with HCl in a 2.0M stock solution) at 30 °C and then cooled to 0 °C. After addition of 0.4 mM GTP, the mixtures were transferred to 0 °C cuvettes in a recording spectrophotometer and warmed to 30 °C. Tubulin assembly was followed turbidimetrically at 350 nm. […] The capacity of the test compounds to inhibit colchicine binding to tubulin was measured as described. The reaction mixtures contained 1 μM tubulin, 5 μM [^3H]colchicine and 5 μM test compound.

[3] = system: human myeloid leukaemia U-937 cells; assay: MTT cytotoxicity assay, U-937; type: cell-based; details: U-937, MTT, 72 h, read-out: IC50, inhibition of cell growth
Description: (§1) U-937 (human myeloid leukaemia) cells from DSMZ (German Collection of Microorganisms and Cell Cultures, Braunschweig, Germany) and U-937 cells overexpressing human Bcl-2 protein (designated U-937/Bcl-2, donated by Dr Jacqueline Bréard, INSERM U749, Faculté de Pharmacie Paris-Sud., Châtenay-Malabry, France) were cultured in RPMI-1640 medium containing 10% (v/v) heat-inactivated foetal bovine serum, 100 μg/mL streptomycin and 100 U/mL penicillin, incubated at 37 °C in a humidified atmosphere containing 5% CO2 as described. The functioning of U-937/Bcl-2 cells was tested using the cytotoxic agent 1-β-D-arabino-furanosylcytosine as previously described. Human peripheral blood mononuclear cells (PBMC) were isolated from heparin-anticoagulated blood of healthy volunteers by centrifugation with Ficoll-Paque Plus (GE Healthcare Bio-Sciences AB, Uppsala, Sweden). PBMC were also stimulated with phytohemagglutinin (2 μg/mL) for 48 h before the experimental treatment. The trypan blue dye exclusion method was used for counting the living/dead cells by a hematocytometer with 95% viability in all experiments. The cytotoxicity of compounds was evaluated by the colorimetric 3-(4,5-dimethyl-2-thiazolyl-)-2,5-diphenyl-2H-tetrazolium bromide (MTT) assay as previously described. Briefly, 5 × 10^3 exponentially growing cells were seeded in 96-well microculture plates with increasing concentrations of compounds for 72 h. After the addition of MTT (0.5 mg/mL), cells were incubated at 37 °C for 4 h. Sodium dodecyl sulphate (10% w/v) in 0.05 M HCl was added to the wells and then incubated at room temperature overnight in the dark. Absorbance was measured at 570 nm. […] Values are mean ± SE from at least three independent experiments, each performed in triplicate. Compounds were dissolved in DMSO and kept in the dark at 25 °C.

[4] = system: human peripheral blood mononuclear cells (PBMC); assay: Cytotoxicity on normal PBMC (quiescent or PHA-activated); type: cell-based; details: up to 10 μM, 24 h
Description: as §1, with “Briefly, 5 × 10^3 exponentially growing cells were seeded in 96-well microculture plates with increasing concentrations of compounds for 72 h.” left out

[5] = system: U-937/Bcl-2 cells; assay: Cell cycle phase distribution and apoptosis, flow cytometry (propidium iodide) and fluorescence microscopy, U-937/Bcl-2; type: cell-based, human
Description: Fluorescent microscopy and flow cytometric analysis of propidium iodide-stained cells were performed as described. Briefly, cells were harvested and fixed in 3% paraformaldehyde and incubated at room temperature for 10 min. The fixative was removed, and the cells were washed with PBS, resuspended in 30–50 μL of PBS containing 20 μg/mL bis-benzimide trihydrochloride (Hoechst 33258) and incubated at room temperature for 15 min. Stained nuclei were visualized using a Zeiss fluorescence microscope.
Flow cytometric analysis was carried out using a BD FACSVerse™ cytometer (BD Biosciences, San Jose, CA, USA).

| SMILES | fold more potent than CA-4 [1] | Colchicine binding % ±SD (inhibition) [2] [%] | IC50 [3] [µM] | Toxicity to normal PBMC [4] | % G1 ([5]; U-937/Bcl-2, 24 h, 0.3 µM) [%] | % G2-M ([5]; U-937/Bcl-2, 24 h, 0.3 µM) [%] | % S ([5]; U-937/Bcl-2, 24 h, 0.3 µM) [%] | % Sub-G1 ([5]; U-937/Bcl-2, 24 h, 0.3 µM) [%] | % G1 ([5]; U-937/Bcl-2, 24 h, 1 µM) [%] | % G2-M ([5]; U-937/Bcl-2, 24 h, 1 µM) [%] | % S ([5]; U-937/Bcl-2, 24 h, 1 µM) [%] | % Sub-G1 ([5]; U-937/Bcl-2, 24 h, 1 µM) | % G1 ([5]; U-937/Bcl-2, 48 h, 0.3 µM) [%] | % G2-M ([5]; U-937/Bcl-2, 48 h, 0.3 µM) [%] | % S ([5]; U-937/Bcl-2, 48 h, 0.3 µM) [%] | % Sub-G1 ([5]; U-937/Bcl-2, 48 h, 0.3 µM) [%] | % G1 ([5]; U-937/Bcl-2, 48 h, 1 µM) [%] | % G2-M ([5]; U-937/Bcl-2, 48 h, 1 µM) [%] | % S ([5]; U-937/Bcl-2, 48 h, 1 µM) [%] | % Sub-G1 ([5]; U-937/Bcl-2, 48 h, 1 µM) | also measured |
| --- | --- | --- | --- | --- | --- | --- | --- | --- | --- | --- | --- | --- | --- | --- | --- | --- | --- | --- | --- | --- | --- |
| CCOC(=O)c1[nH]c2cc(OC)ccc2c1/C=C/C(=O)c1cc(OC)c(OC)c(OC)c1 [Compound 9f, (E)-Ethyl 6-methoxy-3-(3-oxo-3-(3,4,5-trimethoxyphenyl)prop-1-en-1-yl)-1H-indole-2-carboxylate] | 8–24 fold | 23 ± 1 | 6.5 ± 1.7 | devoid of significant cytotoxic activity; also recorded: no appreciable toxicity | 26.0 ± 0.9 | 41.1 ± 0.4 | 25.2 ± 0.3 | 6.2 ± 0.9 | 17.6 ± 0.6 | 41.0 ± 2.3 | 18.1 ± 0.1 | 20.6 ± 1.6 % | 27.4 ± 0.8 | 31.6 ± 0.3 | 26.3 ± 0.4 | 11.1 ± 0.1 | 16.0 ± 0.0 | 28.4 ± 1.8 | 16.5 ± 1.0 | 30.2 ± 3.3 % | % G1 ([5]; U-937/Bcl-2, 72 h, 0.3 µM): 30.3 ± 2.9 %; % G2-M ([5]; U-937/Bcl-2, 72 h, 0.3 µM): 29.4 ± 2.0 %; % S ([5]; U-937/Bcl-2, 72 h, 0.3 µM): 23.8 ± 0.7%; % Sub-G1 ([5]; U-937/Bcl-2, 72 h, 0.3 µM): 11.8 ± 0.5 %; % G1 ([5]; U-937/Bcl-2, 72 h, 1 µM): 14.0 ± 0.6 %; % G2-M ([5]; U-937/Bcl-2, 72 h, 1 µM): 22.7 ± 0.2%; % S ([5]; U-937/Bcl-2, 72 h, 1 µM): 17.1 ± 1.4%; % Sub-G1 ([5]; U-937/Bcl-2, 72 h, 1 µM): 37.7 ± 1.5 % |
| CCOC(=O)c1[nH]c2ccc(OC)cc2c1/C=C/C(=O)c1cc(OC)c(OC)c(OC)c1 [Compound 9d, (E)-Ethyl 5-methoxy-3-(3-oxo-3-(3,4,5-trimethoxyphenyl)prop-1-en-1-yl)-1H-indole-2-carboxylate] | 8–24 fold | 9.6 ± 2 | 2.9 ± 0.7 | devoid of significant cytotoxic activity; also recorded: no appreciable toxicity | 41.0 ± 1.3 | 29.7 ± 0.2 | 25.1 ± 1.1 | 2.8 ± 0.2 | 29.3 ± 0.3 | 35.7 ± 0.2 | 28.7 ± 0.5 | 4.6 ± 0.3% | 49.1 ± 0.4 | 18.9 ± 0.7 | 26.7 ± 2.2 | 4.4 ± 1.0 | 33.2 ± 2.3 | 31.0 ± 2.8 | 27.4 ± 0.2 | 6.5 ± 0.5% | % G1 ([5]; U-937/Bcl-2, 72 h, 0.3 µM): 53.6 ± 1.2%; % G2-M ([5]; U-937/Bcl-2, 72 h, 0.3 µM): 20.0 ± 0.8%; % S ([5]; U-937/Bcl-2, 72 h, 0.3 µM): 21.8 ± 1.4%; % Sub-G1 ([5]; U-937/Bcl-2, 72 h, 0.3 µM): 3.1 ± 0.9%; % G1 ([5]; U-937/Bcl-2, 72 h, 1 µM): 41.6 ± 2.5 %; % G2-M ([5]; U-937/Bcl-2, 72 h, 1 µM): 24.8 ± 2.6%; % S ([5]; U-937/Bcl-2, 72 h, 1 µM): 24.0 ± 1.8%; % Sub-G1 ([5]; U-937/Bcl-2, 72 h, 1 µM): 7.5 ± 1.2%; apoptosis induction (fluorescence microscopy and flow cytometry) ([5]; U-937/Bcl-2 cells): only induced low apoptosis |
| COC(=O)c1[nH]c2cc(OC)ccc2c1/C=C/C(=O)c1cc(OC)c(OC)c(OC)c1 [Compound 9e, (E)-Methyl 6-methoxy-3-(3-oxo-3-(3,4,5-trimethoxyphenyl)prop-1-en-1-yl)-1H-indole-2-carboxylate] | 8–24 fold | 29 ± 5 | 5.7 ± 0.1 | devoid of significant cytotoxic activity; also recorded: no appreciable toxicity | 24.7 ± 0.5 | 40.1 ± 1.3 | 23.2 ± 0.2 | 9.8 ± 0.5 | 17.4 ± 0.2 | 47.3 ± 1.2 | 18.1 ± 1.7 | 15% and 14.7 ± 0.7 % | 23.0 ± 0.7 | 34.3 ± 0.5 | 22.4 ± 0.2 | 14.6 ± 0.4 | 13.0 ± 0.9 | 33.2 ± 0.9 | 15.4 ± 0.1 | 28% and 28.0 ± 0.7 % | IC50 ([1]; Homo sapiens, HT-29, HT29, 72–96 h, read-out: IC50, inhibition of proliferation): 0.16 ± 0.02 µM; fold increase in the percentage of apoptotic (hypodiploid) cells ([5]; U-937/Bcl-2, 1 μM, 72 h, versus control): ~20 fold; % G1 ([5]; U-937/Bcl-2, 72 h, 0.3 µM): 22.4 ± 0.4 %; % G2-M ([5]; U-937/Bcl-2, 72 h, 0.3 µM): 31.3 ± 1.3 %; % S ([5]; U-937/Bcl-2, 72 h, 0.3 µM): 21.8 ± 0.8%; % Sub-G1 ([5]; U-937/Bcl-2, 72 h, 0.3 µM): 17.6 ± 0.5 %; % G1 ([5]; U-937/Bcl-2, 72 h, 1 µM): 12.8 ± 0.5 %; % G2-M ([5]; U-937/Bcl-2, 72 h, 1 µM): 23.1 ± 2.2%; % S ([5]; U-937/Bcl-2, 72 h, 1 µM): 16.0 ± 0.7%; % Sub-G1 ([5]; U-937/Bcl-2, 72 h, 1 µM): 36% and 36.1 ± 3.3 % |
